System: rat glima cells (C6)
Test: Cytotoxicity test (WST-8)
Format: cell-based
Conditions: 48 hours culture with boron agent, WST-8 absorbance at 450 nm
Experimental: Using a 96-well microplate, rat glima cells (C6) were seeded at a density of 1.5×10^4 cells/ml per well and then cultured at room temperature (37° C., 5% CO2) for 16 hours. The culture fluid was taken out by suction and the culture fluids containing boron agents at various concentrations obtained in the Examples were added to respective wells in an amount of […] each. After culturing at room temperature (37° C., 5% CO2) for 48 hours, the culture fluid was taken out by suction, […] portions of WST-8 solution were added respectively, and culture was further carried out at room temperature (37° C., 5% CO2) for 4 hours. Using a microplate reader, the absorbance at a wavelength of 450 nm (reference wavelength: 655 nm) was measured and the absorbance of wells not containing cells was employed as background control, to determine each IC50 value.

Compound | IC50 [µM] | IC50 (Rattus norvegicus) [µM]
1-amino-4-[(undecahydrododecaboranyl-thio)methyl]cyclohexanone-1-carboxylic acid disodium salt [cis-ACHC-BSH] | < 300 | –
N[C@@H](Cc1ccc(B(O)O)cc1)C(=O)O [L-BPA, 4-borono-L-phenylalanine, reference compound] | – | > 2000
cis-1-amino-3-(dodecaboranylthiomethyl)cyclobutanecarboxylic acid trisodium salt [cis-ACBC-BSH] | 2500 | –
trans-1-amino-3-(dodecaboranylthiomethyl)cyclobutane-carboxylic acid trisodium salt [trans-ACBC-BSH] | 2100 | –
